Results from paper PMC9605374 (Marine Drugs, 2022).

Assays:
[1] = tested on: LC3B-I/II in 22Rv1 cells; assay: Western blotting, autophagy marker; assay type: cell-based, human
Experimental: We examined several time points, specifically, 15 min, 2 h, and 48 h (Figure 6).
Figure 6 Validation of kinome analysis data. 22Rv1 cells were treated with 1 µM or 10 µM of NB for the indicated time. The protein expression was analyzed by Western blotting using total protein load equal to 30 µg/slot. α-Tubulin was used as a loading control.
The Western blot assay was executed as previously described: 1 × 10^6 cells were seeded in Petri dishes (ø 6 cm, 5 mL/dish) and incubated overnight. On the next day, the cells were treated with the compounds in fresh culture media (5 mL/dish) for the indicated time. Next, cells were harvested with a cell scraper and lysed in lysis buffer including protease and phosphatase inhibitors cocktail (Roche, Mannheim, Germany). Cell debris were removed from the protein lysates via centrifugation. Afterwards, the cell-free protein mixtures were separated in gradient ready-made Mini-PROTEAN® TGX Stain-Free^TM gels (Bio-Rad, Hercules, CA, USA) using SDS-PAGE (sodium dodecylsulfate polyacrylamide gel electrophoresis). Then, the proteins were blotted onto ø 0.2 µm pore PVDF membrane. The membrane was blocked and consequently treated with primary and secondary antibodies for protein detection. The signals were detected using the ECL chemiluminescence system (Thermo Scientific, Rockford, IL, USA).

[2] = tested on: LNCaP; set-up: method as in PMID 27355960; conditions: cited from earlier work
[3] = tested on: mouse lymphoma cells L5178Y; set-up: method as in doi:10.1016/j.phytol.2014.12.010; conditions: cited from earlier work
[4] = tested on: 22Rv1 cells; assay: Cell cycle progression and DNA fragmentation analysis (PI, flow cytometry); assay type: cell-based, human; conditions: 22Rv1, 48 h
Experimental: Figure 4 Investigation of the proapoptotic activity of NB. Flow cytometry analysis of 22Rv1 cells after 48 h of treatment. (A) Cell cycle and DNA fragmentation analysis. Treated cells were stained with PI and analyzed using a flow cytometry technique. Sub-G1 population was assumed to be apoptotic cells containing fragmentated DNA. (B) Analysis of phosphatidylserine externalization. Treated cells were double-stained with annexin-V-FITC and PI and analyzed using the flow cytometry technique. Cells of the low left quadrant (annexin-V-FITC^−/PI^−) were considered as alive cells. The Cell Quest Pro v.5.2.1 software (BD Bioscience, San Jose, CA, USA) was used to analyze and quantify the FACS data. Cells treated for 48 h with 10 µM of anisomycin were used as a positive control. Number of replicates n = 3. Statistical significance: * p < 0.05 (ANOVA). […]
DNA fragmentation and cell cycle progression of treated and untreated cells (negative control) were analyzed by flow cytometry as previously described. […]

[5] = tested on: prostate cancer cells; assay: MTT assay, mean IC50 in cancer cell panel and selectivity index; assay type: cell-based, human
Description: To examine the anticancer potential and selectivity of NB, we used a panel of six human prostate cancer cell lines, harboring different levels of treatment resistance to representatively reflect the heterogeneity of the disease. […] Additionally, four human noncancer cells lines were utilized in order to determine the selectivity of NB towards prostate cancer cells, i.e., prostate noncancer PNT2 and RWPE-1 cells, human embryonic kidney HEK 293T cells, and human fibroblasts MRC-9. The different cell lines were treated with NB and the cell viability was examined using MTT assay (Figure 1). The mean IC50 of NB and docetaxel (used as a reference substance) in noncancerous cell lines was divided by the mean IC50 in the prostate cancer cell lines to determine the selectivity index (SI).
The MTT assay was used to monitor the effect of the drugs on cell viability in terms of metabolic activity, as previously reported. First, preincubation of the cells in 96-well plates (6 × 10^3 cells/well in 100 μL/well) was performed overnight in the correspondent culture medium. Next, the medium was exchanged for fresh medium containing the investigated compounds or a vehicle (100 μL/well). Cells were then incubated for 48 h, unless otherwise stated. Then, 10 μL/well of 3-(4,5-dimethylthiazol-2-yl)-2,5-diphenyltetrazolium bromide reagent (MTT, 5 mg/mL) were added. After 2–4 h of additional incubation the media was removed, and the plates were dried. Finally, 50 μL/well of DMSO were added to solve the formed formazan crystals produced by the metabolic active cells and Infinite F200PRO reader (TECAN, Männedorf, Switzerland) was used to measure the cell viability. The results were proceeded with a GraphPad Prism software v.9.1.1 (GraphPad Software, San Diego, CA, USA). Cells treated with the solvent of the drugs alone were used as a control (100% alive cells). The effect of the drugs on cell viability is represented as IC50.

COc1ccc(C2SSC34CC5(O)C(Cl)C=CC(O)C5ON3C(=O)C2N(C)C4=O)c(O)c1OC (stereo not shown) [NB, N-methylpretrichodermamide B]
effect on autophagy (LC3B-I/II expression) [1]: no significant effect on autophagy | IC50 [2]: 1760 nM | IC50 [3]: 2000 nM | DNA fragmentation (sub-G1 population) [4]: caused DNA fragmentation | cell cycle arrest [4]: G1-phase arrest | IC50 ([5]; Homo sapiens, mean over PC3, PC3-DR, DU145, 22Rv1, VCaP, LNCaP, 48 h, MTT): 6460 nM | Selectivity Index (SI) ([5]; [mean IC50 in noncancer cells]/[mean IC50 in cancer cells]): 2.4
